Test results taken from US20220331310A1, “METHODS FOR ALLEVIATING PTERYGIUM-ASSOCIATED WORRY ABOUT EYE APPEARANCE” (Cloudbreak Therapeutics, LLC, priority 2019, published 2022).

Test system: Patients with Primary or Recurrent Pterygium
Experiment: Phase 2a vehicle-controlled study of nintedanib ophthalmic solution; patient questionnaire on symptoms and life impacts (1-5 scale)
Assay type: in vivo, human
Details: 0.2% nintedanib ophthalmic solution, topical ocular, TID for 28 days, versus vehicle
Method: A Phase 2a Multicenter, Randomized, Vehicle-Controlled, Dose Escalating Study to Evaluate the Safety, Efficacy and Pharmacokinetics of Nintedanib Ophthalmic Solution in Patients with Primary or Recurrent Pterygium
Objectives of the study were to evaluate ocular and systemic safety of nintedanib and its efficacy in reducing pterygium vascularity in primary or recurrent patients. Several other secondary endpoints were also assessed, including the assessment of symptoms and life impacts by using a questionnaire based on a numerical 1-5 scale. The double-masked, vehicle-controlled, parallel study was conducted with 28 days TID repeat ocular dosing of vehicle and 0.2% nintedanib.
The disclosure focused on the relevant questionnaire endpoint that included 15 questions regarding the ocular symptoms, vision related functioning and the impact on life quality in patients. The questionnaire was derived from the validated Visual Functioning Questionnaire-25 (VFQ-25) (National Eye Institute, 2000) and the validated Ocular Surface Disease Index (OSDI) questionnaire (Schiffman R M, Christianson M D, Jacobsen G, Hirsch J D, Reis B L. Reliability and validity of the Ocular Surface Disease Index. Arch Ophthalmol. 2000; 118 (5): 615-621.). The patients were asked to rate severity using a 5-point scale, with 5 being the most severe.

COC(=O)c1ccc2c(c1)NC(=O)/C2=C(\Nc1ccc(N(C)C(=O)CN2CCN(C)CC2)cc1)c1ccccc1 [nintedanib]
frequency of worry about eye appearance (question "Worry about eye appearance?", change of questionnaire score) (5-point scale, 5 most severe, FIG. 1): significantly better improvements than the vehicle group | questionnaire questions showing a significant difference between drug and vehicle (15-question questionnaire derived from VFQ-25 and OSDI): only one out of fifteen questions showed a significant difference
